Test results from PubChem BioAssay (NCI).
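Growth conditions: 96-well plates. Treatment: test compound, 48 hours, 5 concentrations. Analysis: linear interpolation between bracketing concentrations; unreached endpoints set to highest concentration. GI50 = concentration required for 50% inhibition of growth. TGI denotes the concentration required for complete inhibition of growth.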

Experiments:
Test in all cases: inhibition of tumour cell growth, NCI panel, 48 h
[1] = tested on: A549 NSCLC
[2] = tested on: IGROV1 ovarian
[3] = tested on: KM12 colon
[4] = tested on: M14 melanoma
[5] = tested on: MALME-3M melanoma
[6] = tested on: MOLT-4 leukemia
[7] = tested on: NCI-H460 lung
[8] = tested on: OVCAR-4 ovarian
[9] = tested on: SK-MEL-5 melanoma
[10] = tested on: RPMI-8226 leukemia

Row | Compound | TGI [1] [µM] | TGI [2] [µM] | TGI [3] [µM] | TGI [4] [µM] | TGI [5] [µM] | TGI [6] [µM] | TGI [7] [µM] | TGI [8] [µM] | TGI [9] [µM] | GI50 [1] [nM] | GI50 [2] [nM] | GI50 [3] [nM] | GI50 [4] [nM] | GI50 [5] [µM] | GI50 [6] [nM] | GI50 [7] [nM] | GI50 [8] [µM] | GI50 [10] [nM] | TGI [10] [µM] | GI50 [9] [nM]
1 | OCC(O)COc1c(Cl)ccc(Cl)c1Cl (centres undefined) | > 100 | > 100 | > 100 | > 100 | > 100 | > 100 | > 100 | > 100 | > 100 | – | – | – | – | – | – | – | – | – | – | –
2 | COc1ccc(C2C(c3ccccc3)C(=O)N2c2cc(OC)c(OC)c(OC)c2)cc1I (centres undefined) | > 100 | > 100 | > 100 | > 100 | > 100 | > 100 | > 100 | > 100 | 0.729 | 479 | 580 | 343 | 301 | > 100 | 337 | 337 | 0.709 | 422 | > 100 | 224
3 | O=C(O)C(Br)C(Br)c1ccccc1[N+](=O)[O-] (centres undefined) | > 100 | > 100 | > 100 | > 100 | > 100 | – | > 100 | > 100 | > 100 | – | – | – | – | – | – | – | – | – | > 100 | –
4 | COc1ccc(/C=C/c2nc(=S)[nH][nH]2)cc1 | > 100 | > 100 | – | > 100 | > 100 | > 100 | > 100 | > 100 | > 100 | – | – | – | – | – | – | – | – | – | > 100 | –
5 | N#CCC(=O)N/N=C1/C(=O)NC(=O)C(=O)C1c1nc2ccccc2s1 (centres undefined) | > 100 | > 100 | – | > 100 | > 100 | > 100 | – | > 100 | > 100 | – | – | – | – | – | – | – | – | – | > 100 | –
6 | COc1ccccc1CNC(=O)C1c2ccccc2C(=O)N(CC(C)C)C1c1cccs1 (centres undefined) | – | > 100 | > 100 | 52.7 | 60.3 | 73.9 | 46.9 | > 100 | 28.9 | – | 22400 | 24800 | 19100 | 20.7 | 14500 | 18100 | 26.2 | 13900 | 45.2 | 14700
7 | CC(C)CC(CNC(Cc1ccc(Cl)cc1)C(N)=O)NC(=O)C(Cc1cnc[nH]1)NC(=O)CNC(=O)C(NC(=O)C(C)NC(=O)C(Cc1c[nH]c2ccccc12)NC(=O)C(CCC(=O)O)NC(=O)C(N)Cc1ccccc1)C(C)C (centres undefined) | > 133 | > 133 | > 133 | – | – | > 133 | > 133 | > 133 | – | – | – | – | – | – | – | – | – | – | > 133 | –
8 | CC(=O)OCC(OC(C)=O)C(OC(C)=O)C(OC(C)=O)C(=O)CNn1c(-c2ccccc2)nc2ccc(Br)cc2c1=O (centres undefined) | > 100 | – | > 100 | > 100 | > 100 | > 100 | > 100 | > 100 | > 100 | – | – | – | – | – | – | – | – | – | > 100 | –
9 | CN(C)CCOc1nc2c3cccnc3cc(-c3cccc(Cl)c3)c2c2ncccc12 | 2.98 | 3.2 | 3.03 | 3.48 | – | 2.41 | 2.24 | 3.19 | 3.2 | 1390 | 905 | 1390 | 1760 | – | 488 | 836 | 1.3 | 2340 | 6.24 | 1780
10 | O=C(CCc1ccccc1)On1nnc2ccccc2c1=O | > 100 | > 100 | > 100 | > 100 | > 100 | > 100 | > 100 | > 100 | > 100 | – | – | – | – | – | – | – | – | – | – | –
11 | O=C(CCC(=O)N/N=C/c1ccccc1O)N/N=C/c1ccccc1O | > 100 | > 100 | > 100 | – | > 100 | > 100 | – | > 100 | > 100 | – | – | – | – | – | – | – | – | – | > 100 | –
12 | O=C1OC(c2ccccc2)=N/C1=C\c1c(O)cc(O)cc1O | > 100 | > 100 | > 100 | > 100 | > 100 | > 100 | – | > 100 | > 100 | – | – | – | – | – | – | – | – | – | > 100 | –
13 | CCOC(=O)c1c(C)n(CC(C)C)c2c1cc1oc(=O)c(=O)n3cnc2c13 | > 50 | > 50 | 38.3 | > 50 | – | > 50 | > 50 | > 50 | 19.8 | 15700 | 15100 | 13600 | 16900 | – | 15800 | 16700 | 17.4 | 15800 | 37.2 | 10100
14 | Cc1[nH]nc2c1N=C(c1ccccc1F)c1cc(C#N)ccc1N2 | – | 16.2 | 6.48 | – | > 25 | > 25 | 15.6 | 8.01 | 9.39 | – | 5400 | 111 | – | 14.7 | 6250 | 106 | 3.02 | 7400 | 19.5 | 97.1
15 | CN1CCN(Cc2ccc(NC(=O)c3[nH]ncc3Nc3ncnc4sccc34)cc2)CC1 | > 100 | > 100 | > 100 | – | – | 0.853 | > 100 | 3.92 | – | 263 | 396 | 297 | – | – | 207 | 284 | 0.326 | 360 | 1.38 | –
16 | COc1cc(/C=C2\CC3C4CC=C5C[C@@H](N6CCCC6)CC[C@]5(C)C4CC[C@]3(C)[C@H]2OC(C)=O)ccc1OCCN1CCCCC1 (some centres undefined) | – | 3.23 | 1.4 | 3 | 0.529 | 0.638 | > 100 | 8.98 | 2.87 | – | 1590 | 540 | 1580 | 0.164 | 36 | 3180 | 3.03 | 10.9 | 0.119 | 1530
17 | COc1cc(OC)c(OC)cc1/C=C1\C=Cc2ccccc21 | > 100 | > 100 | 41.8 | – | 56.8 | 44.4 | 38 | – | 26.1 | – | – | – | – | – | – | – | – | – | > 100 | –
18 | Cc1cccc2c1Oc1cc(Cl)ccc1C2NC(=O)CN(C)C (centres undefined) | > 100 | > 100 | – | 51.8 | – | > 100 | > 100 | > 100 | 49.3 | – | – | – | – | – | – | – | – | – | > 100 | –
19 | Cc1[nH]c(=O)nc(CC(O)(c2ccccc2)c2ccccc2)c1-c1ccccc1 | > 100 | > 100 | > 100 | > 100 | > 100 | > 100 | > 100 | > 100 | > 100 | – | – | – | – | – | – | – | – | – | – | –
